Patent US20060034819A1, “Proteins and methods useful for assessing risk of cardiovascular disease” (UNITHER PHARMA, INC., priority 2002, published 2006)

Assays:
NOS = conditions: LNMMA compared with ADMA; cited from earlier work
mutant DDAH = assay: fluorescence polarization immunoassay (FPIA) with ADMA-OG; type: binding, Human
Source text: Fluorescence Polarization Immunassay (FPIA) is another homogeneous solution phase immunoassay for small molecule analytes, which has the unique advantage that a positive signal is generated by competition. FPIA detects the difference between mutant DDAH-bound and free fluorescently-labelled ligand as the polarization of emitted light when excited by plane-polarized light. Small molecule ligands tumble so fast during the excited state that emitted light is nearly isotropic, whereas, the larger mutant DDAH-bound ligand hardly rotates at all during the excited state and therefore emits highly polarized or anisotropic light. Analyte is measured by its ability to compete with label for binding to mutant DDAH, and thereby lower the polarization of emitted light, and increase its intensity at certain angles relative to the incident light. […] Free ADMA is measured as a function of its concentration-dependent ability to compete with fluorescein-ADMA for binding to mutant DDAH thereby reducing polarized emission.
ADMA is conjugated through its alpha-amino group to Oregon Green (OG) and purified by reversed phase HPLC. […] At 10^−10 M ADMA-OG, polarization is determined after equilibration with various concentrations of mutant DDAH ranging from 10^−10 M to 10^−6 M. The minimum value should be equivalent to that of the free conjugate. […]

DDAH = DDAH as an ADMA sensor; binding affinity low; cited from earlier work

Compound: CNC(=N)NCCC[C@H](N)C(=O)O [LNMMA, L,N-monomethylarginine]
- potency as inhibitors of NOS (NOS): equipotent

Compound: N=C(N)NCCC[C@H](N)C(=O)O [arginine]
- inhibition of polarization (mutant DDAH; 100-fold higher concentration than 10^−7 M free ADMA): no detectable inhibition

Compound: CN=C(NC)NCCC[C@H](N)C(=O)O [SDMA, symmetric dimethylarginine]
- Km (DDAH): > 100 µM
- inhibition of polarization (mutant DDAH; concentration equivalent to 10^−7 M free ADMA): no detectable inhibition

Compound: CN(C)C(=N)NCCCC(N)C(=O)O (centres unmarked) [ADMA, asymmetric N,N-dimethyl arginine]
- potency as inhibitors of NOS (NOS): equipotent
